Values after ≈ are worked out from the molar mass of the structure shown.
Tested on: S. aureus
Experiment: Minimum inhibitory concentrations (MICs) for S. aureus of exemplary compounds (Table 2)
Format: cell-based
Details: Staphylococcus aureus, minimum inhibitory concentrations for S. aureus; read-out: MICs
Procedure, shortened: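 MICs (μg/mL) against S. aureus come from microtiter-tray dilution susceptibility testing per NCCLS M7-A5, comparing growth with and without compound.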

| Structure (SMILES) | MIC [µg/mL] |
| --- | --- |
| CC(=O)NC[C@H]1CN(c2ccc(-c3ccc(Cn4cccc4)cc3)c(F)c2)C(=O)O1 [Compound 1054, N-[3-(2-Fluoro-4′-pyrrol-1-ylmethyl-biphenyl-4-yl)-2-oxo-oxazolidin-5-(S)-ylmethyl]-acetamide] | 0.5 (≈ 1.23 µM) |
| CC(=O)NC[C@H]1CN(c2ccc(-c3ccc(CNC(=O)C4CN(C(=O)OC(C)(C)C)C4)cc3)c(F)c2)C(=O)O1 [Compound 4290, 3-({4′-[5-(S)-(Acetylamino-methyl)-2-oxo-oxazolidin-3-yl]-2′-fluoro-biphenyl-4-ylmethyl}-carbamoyl)-azetidine-1-carboxylic acid tert-butyl ester] | 16 (≈ 29.6 µM) |
| CC(=O)NC[C@H]1CN(c2ccc(-c3ccc(CNC(=O)[C@@H](N)Cc4ccccn4)cc3)c(F)c2)C(=O)O1 [Compound 4302, N-{4′-[5-(S)-(Acetylamino-methyl)-2-oxo-oxazolidin-3-yl]-2′-fluoro-biphenyl-4-ylmethyl}-2-(S)-amino-3-pyridin-2-yl-propionamide] | 8 (≈ 15.8 µM) |
| CC(=O)NC[C@H]1CN(c2ccc(-c3ccc(CNCc4ccc(-c5ccccn5)cc4)cc3)c(F)c2)C(=O)O1 [Compound 4017, N-(3-{2-Fluoro-4′-[(4-pyridin-2-yl-benzylamino)-methyl]-biphenyl-4-yl}-2-oxo-oxazolidin-5-(S)-ylmethyl)-acetamide] | 2 (≈ 3.81 µM) |
| CC(=O)NC[C@H]1CN(c2ccc(-c3ccc([C@H](CO)N4CCCC(F)(F)C4)cc3)c(F)c2)C(=O)O1 [Compound 1074, N-(3-{4′-[1-(R)-(3,3-Difluoro-piperidin-1-yl)-2-hydroxy-ethyl]-2-fluoro-biphenyl-4-yl}-2-oxo-oxazolidin-5-(S)-ylmethyl)-acetamide] | 4 (≈ 8.14 µM) |
| CC(=O)NC[C@H]1CN(c2ccc(-c3ccc(CNNC(=O)c4ccncc4)cc3)c(F)c2)C(=O)O1 [Compound 4236, N-(3-{2-Fluoro-4′-[N′-(pyridine-4-carbonyl)-hydrazinomethyl]-biphenyl-4-yl}-2-oxo-oxazolidin-5-(S)-ylmethyl)-acetamide] | 0.25 (≈ 0.524 µM) |
| CC(=O)NC[C@H]1CN(c2ccc(-c3ccc(C(=O)N[C@@H](Cc4cnc[nH]4)C(N)=O)cc3)c(F)c2)C(=O)O1 [Compound 4173, 4′-[5-(S)-(Acetylamino-methyl)-2-oxo-oxazolidin-3-yl]-2′-fluoro-biphenyl-4-carboxylic acid [1-carbamoyl-2-(S)-(3H-imidazol-4-yl)-ethyl]-amide] | 32 (≈ 62.9 µM) |
| CC(=O)NC[C@H]1CN(c2ccc(-c3ccc(CNCc4c(-c5ccccc5)noc4C)cc3)c(F)c2)C(=O)O1 [Compound 4104, N-[3-(2-Fluoro-4′-{[(5-methyl-3-phenyl-isoxazol-4-ylmethyl)-amino]-methyl}-biphenyl-4-yl)-2-oxo-oxazolidin-5-(S)-ylmethyl]-acetamide] | 0.25 (≈ 0.473 µM) |
| O=C1O[C@@H](Cn2ccnn2)CN1c1ccc(-c2ccc(CNCc3cnn[nH]3)cc2)c(F)c1 [Compound 4268, 3-(2-Fluoro-4′-{[(3H-[1,2,3]triazol-4-ylmethyl)-amino]-methyl}-biphenyl-4-yl)-5-(R)-[1,2,3]triazol-1-ylmethyl-oxazolidin-2-one] | 0.25 (≈ 0.557 µM) |
| CC(=O)NC[C@H]1CN(c2ccc(-c3ccc(CN4CCCO4)cc3)c(F)c2)C(=O)O1 [Compound 1112, N-[3-(2-Fluoro-4′-isoxazolidin-2-ylmethyl-biphenyl-4-yl)-2-oxo-oxazolidin-5-(S)-ylmethyl]-acetamide] | 1 (≈ 2.42 µM) |
| CC(=O)NC[C@H]1CN(c2ccc(-c3ccc(C(=O)NCc4ccncc4)nc3)c(F)c2)C(=O)O1 [Compound 4188, 5-{4-[5-(S)-(Acetylamino-methyl)-2-oxo-oxazolidin-3-yl]-2-fluoro-phenyl}-pyridine-2-carboxylic acid (pyridin-4-ylmethyl)-amide] | 1 (≈ 2.16 µM) |
| CC(=O)NC[C@H]1CN(c2ccc(-c3ccc(CNCC(=O)N4CCOCC4)cc3)c(F)c2)C(=O)O1 [Compound 4316, N-(3-{2-Fluoro-4′-[(2-morpholin-4-yl-2-oxo-ethylamino)-methyl]-biphenyl-4-yl}-2-oxo-oxazolidin-5-(S)-ylmethyl)-acetamide] | 4 (≈ 8.26 µM) |
| COc1cc(CNCc2ccoc2)ccc1-c1ccc(N2C[C@H](CNC(C)=O)OC2=O)cc1F [Compound 4028, N-[3-(2-Fluoro-4′-{[(furan-3-ylmethyl)-amino]-methyl}-2′-methoxy-biphenyl-4-yl)-2-oxo-oxazolidin-5-(S)-ylmethyl]-acetamide] | 8 (≈ 17.1 µM) |
| CC(=O)NC[C@H]1CN(c2ccc(-c3ccc(Cn4ccnc4C)cc3)c(F)c2)C(=O)O1 [Compound 1066, N-{3-[2-Fluoro-4′-(2-methyl-imidazol-1-ylmethyl)-biphenyl-4-yl]-2-oxo-oxazolidin-5-(S)-ylmethyl}-acetamide] | 1 (≈ 2.37 µM) |
| CC(=O)NC[C@H]1CN(c2ccc(-c3ccc(CNC(=O)c4cccc(S(C)(=O)=O)c4)cc3)c(F)c2)C(=O)O1 [Compound 4012, N-{4′-[5-(S)-(Acetylamino-methyl)-2-oxo-oxazolidin-3-yl]-2′-fluoro-biphenyl-4-ylmethyl}-3-methanesulfonyl-benzamide] | 4 (≈ 7.41 µM) |
| CC(=O)NC[C@H]1CN(c2ccc(-c3ccc(Cc4noc(C)n4)cc3)c(F)c2)C(=O)O1 [Compound 1017, N-{3-[2-Fluoro-4′-(5-(S)-methyl-[1,2,4]oxadiazol-3-ylmethyl)-biphenyl-4-yl]-2-oxo-oxazolidin-5-(S)-ylmethyl}-acetamide] | 1 (≈ 2.36 µM) |

| Structure (SMILES) | MIC [µg/mL] |
| --- | --- |
| CC(=O)NC[C@H]1CN(c2ccc(-c3ccc(CNCc4csc5ccccc45)cc3)c(F)c2)C(=O)O1 [Compound 4077, N-[3-(4′-{[(Benzo[b]thiophen-3-ylmethyl)-amino]-methyl}-2-fluoro-biphenyl-4-yl)-2-oxo-oxazolidin-5-(S)-ylmethyl]-acetamide] | 16 (≈ 31.8 µM) |
| CC(=O)NC[C@H]1CN(c2ccc(-c3ccc(Cn4cc(CO)nn4)cc3)c(F)c2)C(=O)O1 [Compound 1028, N-{3-[2-Fluoro-4′-(4-hydroxymethyl-[1,2,3]triazol-1-ylmethyl)-biphenyl-4-yl]-2-oxo-oxazolidin-5-(S)-ylmethyl}-acetamide] | 1 (≈ 2.28 µM) |
| CC(=O)NC[C@H]1CN(c2ccc(-c3ccc([C@@H](NCc4ccccn4)C(N)=O)cc3)c(F)c2)C(=O)O1 [Compound 4185] | 16 (≈ 32.6 µM) |
| CC(=O)NC[C@H]1CN(c2ccc(-c3ccc(C(C)NCc4nccs4)cc3)c(F)c2)C(=O)O1 (mixture of isomers) [Compound 4145, N-[3-(2-Fluoro-4′-{1-(R/S)-[(thiazol-2-ylmethyl)-amino]-ethyl}-biphenyl-4-yl)-2-oxo-oxazolidin-5-(S)-ylmethyl]-acetamide] | 2 |
| CC(=O)NC[C@H]1CN(c2ccc(-c3ccc(C(C)NCc4ccncc4)cc3)c(F)c2)C(=O)O1 (mixture of isomers) [Compound 4232, N-[3-(2-Fluoro-4′-{1-(R/S)-[(pyridin-4-ylmethyl)-amino]-ethyl}-biphenyl-4-yl)-2-oxo-oxazolidin-5-(S)-ylmethyl]-acetamide] | 8 |
| CC(=O)NC[C@H]1CN(c2ccc(-c3ccc([C@H](O)CN4CCCC(F)(F)C4)cc3)c(F)c2)C(=O)O1 [Compound 1075, N-(3-{4′-[2-(3,3-Difluoro-piperidin-1-yl)-1-(S)-hydroxy-ethyl]-2-fluoro-biphenyl-4-yl}-2-oxo-oxazolidin-5-(S)-ylmethyl)-acetamide] | 2 (≈ 4.07 µM) |
| CC(=O)NC[C@H]1CN(c2ccc(-c3ccc(CNCc4cccc5cnccc45)cc3)c(F)c2)C(=O)O1 [Compound 4065, N-[3-(2-Fluoro-4′-{[(isoquinolin-5-ylmethyl)-amino]-methyl}-biphenyl-4-yl)-2-oxo-oxazolidin-5-(S)-ylmethyl]-acetamide] | 2 (≈ 4.01 µM) |
| CC(=O)NC[C@H]1CN(c2ccc(-c3ccc(CNNC(=O)c4cccnc4)cc3)c(F)c2)C(=O)O1 [Compound 4237, N-(3-{2-Fluoro-4′-[N′-(pyridine-3-carbonyl)-hydrazinomethyl]-biphenyl-4-yl}-2-oxo-oxazolidin-5-(S)-ylmethyl)-acetamide] | 0.25 (≈ 0.524 µM) |
| CC(=O)NC[C@H]1CN(c2ccc(-c3ccc(C(=O)NCCc4scnc4C)cc3)c(F)c2)C(=O)O1 [Compound 4112, 4′-[5-(S)-(Acetylamino-methyl)-2-oxo-oxazolidin-3-yl]-2′-fluoro-biphenyl-4-carboxylic acid [2-(4-methyl-thiazol-5-yl)-ethyl]-amide] | 0.25 (≈ 0.503 µM) |
| CC(=O)NC[C@H]1CN(c2ccc(-c3ccc(S(=O)(=O)NCCc4ccccn4)cc3)c(F)c2)C(=O)O1 [Compound 3007, N-{3-[2-Fluoro-4′-(2-pyridin-2-yl-ethylsulfamoyl)-biphenyl-4-yl]-2-oxo-oxazolidin-5-(S)-ylmethyl}-acetamide] | 1 (≈ 1.95 µM) |
| CC(=O)NC[C@H]1CN(c2ccc(-c3ccc(CNCc4cnc5ccccc5c4)cc3)c(F)c2)C(=O)O1 [Compound 4021, N-[3-(2-Fluoro-4′-{[(quinolin-3-ylmethyl)-amino]-methyl}-biphenyl-4-yl)-2-oxo-oxazolidin-5-(S)-ylmethyl]-acetamide] | 0.25 (≈ 0.501 µM) |
| CC(=O)NC[C@H]1CN(c2ccc(-c3ccc(CNCC4CCNCC4)cc3)c(F)c2)C(=O)O1 [Compound 4186, N-[3-(2-Fluoro-4′-{[(piperidin-4-ylmethyl)-amino]-methyl}-biphenyl-4-yl)-2-oxo-oxazolidin-5-(S)-ylmethyl]-acetamide] | 64 (≈ 141 µM) |
| CC(=O)NC[C@H]1CN(c2ccc(-c3ccc(C[S+]([O-])c4nccs4)cc3)c(F)c2)C(=O)O1 (stereo partly drawn) [Compound 2036, N-{3-[2-Fluoro-4′-(thiazole-2-sulfinylmethyl)-biphenyl-4-yl]-2-oxo-oxazolidin-5-(S)-ylmethyl}-acetamide] | 1 (≈ 2.11 µM) |
| CC(=O)NC[C@H]1CN(c2ccc(-c3ccc(CSc4ccncc4)cc3)c(F)c2)C(=O)O1 [Compound 2019, N-{3-[2-Fluoro-4′-(pyridin-4-ylsulfanylmethyl)-biphenyl-4-yl]-2-oxo-oxazolidin-5-(S)-ylmethyl}-acetamide] | 1 (≈ 2.21 µM) |
| CC(=O)NC[C@H]1CN(c2ccc(-c3ccc(CNC4CNC4)cc3)c(F)c2)C(=O)O1 (racemic) [Compound 2011, N-{3-[4′-(Azetidin-3-(R/S)-ylaminomethyl)-2-fluoro-biphenyl-4-yl]-2-oxo-oxazolidin-5-(S)-ylmethyl}-acetamide] | 8 (≈ 19.4 µM) |

Reference: patent US10471046B2, “Method for treating, preventing, or reducing the risk of skin infection” (Melinta Subsidiary Corp., priority 2014, dated 2019)
